Literature values as cited in patent US10357461B2, “Physically dispersed, molecularly dissolved and/or chemically bound drug(s) in an empty, hard capsule shell composition” (priority 2005, dated 2019).
Converted amounts (≈) assume the structure as drawn.

Legend:
[1] = people taking metformin

CN(C)C(=N)N=C(N)N [metformin]
people taking the drug who face vitamin B12 deficiency [1]: ~30%

C[C@]12CCC(=O)C=C1[C@@H]1C[C@@H]1[C@H]1[C@@H]3[C@@H]4C[C@@H]4[C@@]4(CCC(=O)O4)[C@@]3(C)CC[C@@H]12 [Drospirenone]
water solubility (water at 25° C.): 1.8 µg/mL (≈ 0.00491 mM)

COc1cc2c(c(OC)c1OC)-c1ccc(OC)c(=O)cc1[C@@H](NC(C)=O)CC2 [Colchicine]
solubility in water (water): 7000 µg/mL (≈ 17.5 mM)
